Test results: US20050026223A1, “Method and compositions for increasing bone mass” (The Board of Trustees of the University of Arkansas, priority 1999, published 2005)

Columns and labels:
wild type HeLa cells = assay: Etoposide-induced apoptosis of wild type HeLa cells; assay type: cell-based, human; settings: compound 10^−8 M 1 h, etoposide 5×10^−5 M 6 hour
Text: CMV promoter alone and CMV promoter-driven cDNA for mERα or mErβ were stably transfected into HeLa cells. […] Cells were trypsinized, pelleted and trypan blue positive cells enumerated. Each bar represents mean of duplicate experiments ±SEM. *P<0.02 versus etoposide alone.
In this experiment, instead of calvaria cells, human HeLa cells which contain undetectable, if any, estrogen receptor were used. HeLa cells were stably transfected with either a CMV promoter-driven cDNA for the murine estrogen receptor-alpha (mERα) or a CMV promoter-driven cDNA for the murine estrogen receptor-beta (mERβ). […] Cells were trypsinized, pelleted and trypan blue positive cells were enumerated.

[1] = system: extracellular signal regulated kinases (ERKs) 1 and 2; assay: Western blot of phosphorylated ERK1/2 in MLO-Y4 osteocytic cells; assay type: cell-based, murine
Method: (§1) MLO-Y4 osteocytic cells were incubated for 25 minutes in serum-free medium. […] Cell lysates were prepared and proteins were separated by electrophoresis in polyacrylamide gels and transferred to PVDF membranes. Western blotting was performed using a specific antibody recognizing phosphorylated ERKs 1 and 2, followed by reblotting with an antibody recognizing total ERKs. Blots were developed by enhanced chemiluminescence.
as §1, with “MLO-Y4” for “MLO-Y4 osteocytic”, “medium in the presence or absence of 50 μM PD98059.” for “medium.”
as §1, with “In this experiment, MLO-Y4” for “MLO-Y4”, “extracellular signal regulated kinases” for “ERKs”, “extracellular signal regulated kinases.” for “ERKs.”, “chemiluminescence. […] This effect is too rapid to be accounted for by the classical mechanism of estrogen action.” for “chemiluminescence.”
as §1, with “In this experiment, MLO-Y4” for “MLO-Y4”, “medium in the presence or absence of 50 μM PD98059.” for “medium.”, “extracellular signal regulated kinases” for “ERKs”, “extracellular signal regulated kinases.” for “ERKs.”

C[C@@]12CCC[C@H]1[C@@H]1CCc3cc(O)ccc3[C@H]1CC2 [estratriene-3-ol]
Effect on etoposide-induced apoptosis (wild type HeLa cells): none of the three compounds had any effect
Activation of ERKs (phosphorylated fraction of ERK1/2) ([1]; 10^−8 M, 5, 15 or 30 minutes): activated
Ability to activate ERKs in the presence of PD98059 ([1]; compound 10^−8 M, 5 minutes, 50 μM PD98059): abrogated
